Test results taken from EP1914236A1 (Ortho-McNeil Pharmaceutical, Inc., priority 2002, dated 2003).
Like-named read-outs stand apart in the source and are kept apart here.

Legend:
[1] = Graded Abdominal Irritant Test (GrAIT); assay type: in vivo; conditions: for % Inhibition: 30 minutes before kaolin (100 mg/kg intraperitoneally), responses counted for 15 minutes, dose not given; for ED50: log dose regression analysis
Procedure: The Graded Abdominal Irritant Test (GrAIT) is a modification of the methods described by Koster et al. (Koster R., Anderson M and DeBeer E. J. Fed. Proc. 1959, 18, 412). Prior to the test (30 minutes for oral or subcutaneous administration), each animal was administered a known analgesic, a test compound, or vehicle (0.05N HCl) by one of two routes (oral or subcutaneous).
Kaolin (100 mg/kg) was injected intraperitoneally (using a standard 23G needle) at a volume of 10mL/kg of body weight. Following the administration of the chemical agent, the animals were placed in glass bell jars (approximately 15cm in diameter with wood chips on the bottom). […] A contraction of the abdominal musculature and an elongation of the body, which extends through to the hindlimbs, characterize this response. The responses were counted during the 15-minute time period after the injection of the kaolin. A mechanical counter or a personal computer was used to collect the number of counts per animal, and animals were observed no more than 5 at a time.
The mean number of counts (±SEM) for a group of animals receiving a known analgesic or test compound was compared to the mean for the group of animals which received only vehicle pretreatment (Control group). For each dose, % inhibition of the response was calculated. For each test compound, the EDso value was calculated using a log dose regression analysis program (PharmTools software).

[2] = molecular target: T1, human B2 bradykinin receptors (Homo sapiens, UniProt P30411); assay: Bradykinin B2 (BK2) Receptor Binding Assay
T1 construct: purchased Receptor Biology, Inc. (Baltimore, MD); host or cells: CHO-K1 cells transfected with the human B2 receptor (membranes)
T1 sequence (P30411 1-391): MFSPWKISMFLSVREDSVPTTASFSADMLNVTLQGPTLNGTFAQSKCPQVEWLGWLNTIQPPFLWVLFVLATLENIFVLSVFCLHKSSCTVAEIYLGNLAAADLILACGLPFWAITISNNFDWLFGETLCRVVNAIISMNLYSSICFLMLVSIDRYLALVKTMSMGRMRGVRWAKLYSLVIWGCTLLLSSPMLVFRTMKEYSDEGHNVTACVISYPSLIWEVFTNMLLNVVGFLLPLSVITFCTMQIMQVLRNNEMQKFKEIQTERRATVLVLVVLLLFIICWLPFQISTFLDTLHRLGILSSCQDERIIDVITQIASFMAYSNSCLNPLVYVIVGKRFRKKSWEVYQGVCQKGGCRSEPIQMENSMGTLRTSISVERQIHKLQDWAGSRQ
Procedure, shortened: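 Membranes came from CHO-K1 cells expressing human B2 receptors; bound radioligand was collected by filtration and washed with cold 10 mM HEPES, pH 7.5. Single concentrations gave % inhibition of specific binding, and concentration ranges gave Ki values.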

CHO-hB2 cell membranes = molecular target: T2, CHO-hB2 cell membranes (Homo sapiens, UniProt P30411); assay: [35S]GTPγS Binding Assay in CHO-hB2 Cell Membranes; assay type: biochemical
T2 construct: purchased Receptor Biology, Inc. (Baltimore, MD); host or cells: CHO-hB2 cells (membranes)
T2 sequence (P30411 1-391): T1 sequence (P30411 1-391)
Procedure: CHO-hB2 cell membranes were purchased from Receptor Biology, Inc. (Baltimore,MD). 10 mg/mL of membrane protein was suspended in 10 mM TRIS-HC pH 7.2, 2 mM EDTA, 10% sucrose.
Membranes were added into 15 mL ice cold binding assay buffer. The assay buffer contained 50 mM HEPES, pH 7.6, 5 mM MgCl2, 100 mM NaCl, 1 mM DTT and 1 mM EDTA. The membrane suspension was homogenized twice with a Polytron and centrifuged at 3000 rpm for 10 min. The supernatant was then centrifuged at 18,000 rpm for 20 min. The pellet was saved in a tube and resuspended.
The pellet membranes (40 µg/mL) were preincubated with SPA (scintillation proximity assay) beads (20 mg/mL) at 25C° for 45 min in the assay buffer. The SPA beads (5 mg/mL) coupled with membranes (10 µg/mL) were then incubated with 0.5 nM [^35S]GTPγS in the same HEPES buffer containing 50 µM GDP in total volume of 200 µL. Bradykinin was used to stimulate [^35S]GTPγS binding. Varying concentrations of drugs were incubated with bradykinin to inhibit bradykinin-stimulated [^35S]GTPγS binding. The basal binding was tested in the absence of bradykinin and no specific binding was tested in the present 10 µM unlabeled GTPγS. The radioactivity was quantified on a Packard Top Count, and calculated. % of Basal = (stimulated binding-non specific binding)/(basal binding-non specific binding) × 100. [formula]

[3] = membranes of CHO-K1 cells transfected with human B2 bradykinin receptors, ~0.25 nM [3H]NPC17731, 60 min at 25°C
[4] = number in parentheses, bradykinin-stimulated [35S]GTPγS binding, test concentration not given
[5] = word part of the cell, effect on bradykinin-stimulated [35S]GTPγS binding

Compound | % Inhibition ([1]; po) | ED50 ([1]; po) | % Inhibition ([1]; sc) | Ki [2, 3] | Functional Activity (% Basal) (CHO-hB2 cell membranes; [4]) | Functional Activity (CHO-hB2 cell membranes; [5]) | Ki [2] | Functional Activity (CHO-hB2 cell membranes) | Functional Activity (% Basal) (CHO-hB2 cell membranes)
Cc1ccc2cccc(OCc3c(Cl)ccc(N(C)C(=O)Cc4ccc(C(=O)c5ccc(Cl)nc5)n4C)c3Cl)c2n1 [Compound 67, 2-[5-(6-Chloro-pyridine-3-carbonyl)-1-methyl-1H-pyrrol-2-yl]-N-[2,4-dichloro-3-(2-methyl-quinolin-8-yloxymethyl)-phenyl]-N-methyl-acetamide] | 78% | 68.8 µmol/kg | 100% | 194 nM | 55 % Basal | Antagonist | – | – | –
CC(=O)Nc1ccc(C(=O)c2ccc(CC(=O)N(C)c3ccc(Cl)c(COc4cccc5ccc(C)nc45)c3Cl)n2C)cc1 [Compound 74, 2-[5-(4-Acetylamino-benzoyl)-1-methyl-1 H-pyrrol-2-yl]-N-[2,4-dichloro-3-(2-methyl-quinolin-8-yloxymethyl)-phenyl]-N-methyl-acetamide] | -6% | – | 88% | 68 nM | 33 % Basal | Antagonist | – | – | –
Cc1ccc2cccc(OCc3c(Cl)ccc(N(C)C(=O)Cc4ccc(C(=O)c5ccc(S(C)(=O)=O)cc5)n4C)c3Cl)c2n1 [Compound 75, N-[2,4-Dichloro-3-(2-methyl-quinolin-8-yloxymethyl)-phenyl]-2-[5-(4-methanesulfonyl-benzoyl)-1-methyl-1 H-pyrrol-2-yl]-N-methyl-acetamide] | 50% | – | 93.3% | 47 nM | 73 % Basal | Antagonist | – | – | –
Cc1ccc2cccc(OCc3c(Cl)ccc(N(C)C(=O)Cc4ccc(C(=O)c5ccc(C#N)cc5)n4C)c3Cl)c2n1 [Compound 76] | 22% | – | 100% | 41 nM | 79 % Basal | Antagonist | – | – | –
Cc1ccc2cccc(OCc3c(C)ccc(N(C)C(=O)Cc4ccc(C(=O)c5ccc(Cl)nc5)n4C)c3C)c2n1 [Compound 77] | 70 po % | 80.9 µmol/kg | – | 306 nM | 62 % Basal | Antagonist | – | – | –
Cc1ccc2cccc(OCc3c(C)ccc(N(C)C(=O)Cc4ccc(C(=O)c5ccc(C#N)nc5)n4C)c3C)c2n1 [Compound 78] | 82 po % | 114 µmol/kg | – | 286 nM | 83 % Basal | Antagonist | – | – | –
Cc1ccc2cccc(OCc3c(C)ccc(N(C)C(=O)Cc4ccc(C(=O)c5ccc(C#N)cc5)n4C)c3C)c2n1 [Compound 79, 2-[5-(4-Cyano-benzoyl)-1-methyl-1H-pyrrol-2-yl]-N-[2,4-dimethyl-3-(2-methyl-quinolin-8-yloxymethyl)-phenyl]-N-methyl-acetamide] | 68 po % | 61.3 µmol/kg | – | 69 nM | 100 % Basal | Antagonist | – | – | –
Cc1ccc2cccc(OCc3c(C)ccc(N(C)C(=O)CCc4ccc(C(=O)c5ccc(Cl)nc5)n4C)c3C)c2n1 [Compound 88] | -24% | – | 96% | 126 nM | 41 % Basal | Antagonist | – | – | –
Cc1ccc2cccc(OCc3c(Cl)ccc(N(C)C(=O)CCc4ccc(C(=O)c5ccc(Cl)nc5)n4C)c3Cl)c2n1 [Compound 89] | 98po % | 22.5 µmol/kg | – | 57 nM | 51 % Basal | Antagonist | – | – | –
Cc1ccc2cccc(OCc3c(C)ccc(N(C)C(=O)CCc4ccc(C(=O)c5ccc(C#N)cc5)n4C)c3C)c2n1 [Compound 90] | 45% | – | 100% | 46 nM | 50 % Basal | Antagonist | – | – | –
Cc1ccc2cccc(OCc3c(Cl)ccc(N(C)C(=O)CCc4ccc(C(=O)c5ccc(C#N)cc5)n4C)c3Cl)c2n1 [Compound 91] | 23% | – | 97.4% | – | – | – | 15 nM | Antagonist (58) | Antagonist (58) % Basal
